The values that follow come from US20190083495A1, “Methods Of Preventing Or Reducing A Fibrotic Response Using CSF1R Inhibitors” (Massachusetts Institute of Technology, priority 2016, published 2019).

Each structure is given as a SMILES string.

One data set has as its system VEGF. Description: VEGF Luminex protein quantification of protein lysates. The data set is classed as in vivo, C57BL/6 mice. The conditions noted are these: lysates of alginate spheres and tissue retrieved at 14 days. Here is the method:
For targeted macrophage depletions, clodrosome (200 μL/mouse) (Encapsula Nano Sciences, Nashville, Tenn.) were injected intraperitoneally starting at −3 days (prior to implantation, day 0), and for every 7 days thereafter (so days −3, 4, and 11). To achieve neutrophil depletion, affinity purified anti-Ly6g (Clone 1A8) antibody (250 ug/mouse) (BioLegend, San Diego, Calif.) was administered also starting at day −3, and every 3 days thereafter (except the day of implantation). For the combination therapy, in order to avoid drug-antibody interactions, each agent was administered 4 hours apart from one another. […]
Cytokine array analysis was performed using the Luminex Bio-Rad Bio-Plex Pro mouse cytokine panel based on Luminex beads (multiplexing both the 23 and 8-cytokine arrays) (Bio-Rad, Hercules, Calif.), according to manufacturer's instructions. 1:4 diluted mouse sera samples were analyzed for the time course, and protein lysates taken from fibrosed tissue and alginate microspheres, loaded at a concentration of 500 μg/mL (200 uL per sample), were run to compare cytokine responses across mock (saline) treated versus wildtype, knockout or serially perturbed/depleted C57BL/6 mice implanted with 500 μm SLG20 alginate spheres. […] The plate was then read on a BioPlex-200 plate reader, with absolute concentrations obtained through fitting a standard curve. […]

The subject of data set [1] is Peritoneal exudate macrophages. Description: Phagocytosis assay with fluorospheres. The conditions noted are these: macrophages from treated mice, 90 minutes with fluorospheres, vs vehicle. The data set is classed as cell-based, C57BL/6 mice. The source says: For in vivo wound healing: C57BL/6 mice were anesthetized (same as above) and shaved, and skin incisions 1.5 cm in length were made along the midline. Each incision was then wound clipped shut for both vehicle and daily GW2580-treated C57BL/6 mice. Wound clips were removed and then replaced each imaging day up until day 7 (required to maintain them up until at least this time), after which clips were left off completely. Photos were acquired on days 0, 1, 4, 7, 10, and 14 post-incision. After 14 days, mice were sacrificed, and skin samples were prepared for histological assessment (H&E and Masson's Trichrome) of both vehicle and GW2580 treatment groups. Cross-sections through the incision line were generated to assess the level of in vivo healing following a 14-day treatment regimen. For IP innate immune cell counts, FACS, and phagocytosis assays: cells were isolated by peritoneal lavage with 8 mL DPBS, diluted into RPMI, and then subsequently counted, and aliquoted either for staining and FACS analysis (as described above), or for phagocytosis assays. […] Following appropriate incubation times, samples were read in a black-wall 96-well plate with a Tecan fluorescent-capable Infinite M1000 plate reader.

As to `COc1ccc(COc2ccc(Cc3cnc(N)nc3N)cc2OC)cc1` [GW2580], the VEGF protein production entry in the data set with VEGF is reported as “spared to normal levels”. Moreover, the phagocytic activity entry in data set [1] was “no significant differences”.
